Experimental data reported in patent US7879848B2, “Dipeptidyl Peptidase-IV inhibiting compounds, method of preparing the same, and pharmaceutical compositions containing the same as an active agent” (LG Life Sciences, Ltd., priority 2005, dated 2011).

Target: T1, Dipeptidyl Peptidase-IV (DPP-IV) (Homo sapiens, UniProt P27487)
T1 construct: made in house
Assay: Measurement of DPP-IV Activity-Inhibiting Ability (fluorescent substrate Ac-Gly-Pro-AFC)
Assay type: biochemical
Settings: 25° C., 50 mmol HEPES (pH 7.4), DP-IV 7.1 nM, enzyme reaction for 1 hour
Method in brief: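 Baculovirus-expressed, nickel-purified enzyme (7.1 nM) was reacted with 100 µM Ac-Gly-Pro-AFC in 50 mmol HEPES pH 7.4 at 25 °C across a range of inhibitor concentrations. Product fluorescence was read at excitation 400 nm and emission 505 nm.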

T1 sequence (P27487 whole entry): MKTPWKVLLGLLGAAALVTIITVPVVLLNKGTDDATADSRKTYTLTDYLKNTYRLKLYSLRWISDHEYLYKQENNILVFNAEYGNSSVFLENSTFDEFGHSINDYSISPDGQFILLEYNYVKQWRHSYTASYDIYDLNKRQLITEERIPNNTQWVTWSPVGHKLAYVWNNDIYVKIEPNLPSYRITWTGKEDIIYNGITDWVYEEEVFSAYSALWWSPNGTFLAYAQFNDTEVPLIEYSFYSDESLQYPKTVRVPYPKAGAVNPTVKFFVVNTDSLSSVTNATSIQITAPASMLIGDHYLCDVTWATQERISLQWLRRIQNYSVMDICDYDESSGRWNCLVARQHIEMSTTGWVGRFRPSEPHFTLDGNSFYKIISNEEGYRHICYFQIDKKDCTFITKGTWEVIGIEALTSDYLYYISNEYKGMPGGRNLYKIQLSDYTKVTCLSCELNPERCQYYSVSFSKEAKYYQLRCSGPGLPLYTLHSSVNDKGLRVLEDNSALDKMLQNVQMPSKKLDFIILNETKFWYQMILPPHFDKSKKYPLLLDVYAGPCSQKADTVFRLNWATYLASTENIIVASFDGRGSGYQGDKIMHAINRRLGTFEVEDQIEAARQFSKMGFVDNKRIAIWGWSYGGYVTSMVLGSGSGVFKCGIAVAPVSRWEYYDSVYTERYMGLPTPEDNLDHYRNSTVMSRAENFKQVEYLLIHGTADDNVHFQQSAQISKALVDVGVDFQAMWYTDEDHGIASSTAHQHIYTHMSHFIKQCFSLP

`CC(C)(C)c1nc2c(c(C(F)(F)F)n1)CCN(C(=O)C[C@H](N)CN1CC(F)(F)CCC1=O)C2` [Ex. 92, 1-{(2S)-2-amino-4-[2-t-butyl-4-(trifluoromethyl)-5,8-dihydropyrido[3,4-d]pyrimidin-7(6H)-yl]-4-oxobutyl}-5,5-difluoropiperidin-2-one] was tested. Which IC50 did it give?
The IC50 was 48 nM.

With `C[C@H]1CN(C[C@@H](N)CC(=O)N2CCc3c(nc(C(C)(C)C)nc3C(F)(F)F)C2)C(=O)CO1` [Ex. 93] as the compound, how does the IC50 read?
The IC50 was 55 nM.

With `CC1CN(C[C@@H](N)CC(=O)N2CCn3c(nnc3C(F)(F)F)C2)C(=O)CS1` (stereo partly drawn) [Ex. 94, 4-{(2S)-2-amino-4-oxo-4-[3-(trifluoromethyl)-5,6-dihydro[1,2,4]triazolo[4,3-a]pyrazin-7(8H)-yl]butyl}-6-methylthiomorpholin-3-one] as the compound, how does the IC50 read?
Its IC50 is 238 nM.

For `CCc1nc2c(c(C(F)(F)F)n1)CCN(C(=O)C[C@H](N)CN1C[C@H](C)CCC1=O)C2` [Ex. 95, (5R)-1-{(2S)-2-amino-4-[2-ethyl-4-(trifluoromethyl)-5,8-dihydropyrido[3,4-d]pyrimidin-7(6H)-yl]-4-oxobutyl}-5-methylpiperidin-2-one], which IC50 is on record?
Its IC50 is 13 nM.

For `C[C@@H]1CCC(=O)N(C[C@@H](N)CC(=O)N2CCc3c(nc(C(F)(F)C(F)(F)F)nc3C(F)(F)F)C2)C1` [Ex. 96, (5R)-1-{(2S)-2-amino-4-oxo-4-[2-(pentafluoroethyl)-4-(trifluoromethyl)-5,8-dihydropyrido[3,4-d]pyrimidin-7(6H)-yl]butyl}-5-methylpiperidin-2-one], which IC50 is on record?
The IC50 was 7 nM.

`C[C@H]1CN(C[C@@H](N)CC(=O)N2CCc3c(nc(C(F)(F)C(F)(F)F)nc3C(F)(F)F)C2)C(=O)CO1` [Ex. 97, (6S)-4-{(2S)-2-amino-4-oxo-4-[2-(pentafluoroethyl)-4-(trifluoromethyl)-5,8-dihydropyrido[3,4-d]pyrimidin-7(6H)-yl]butyl}-6-methylmorpholine-3-one] was tested. Which IC50 did it give?
The IC50 was 57 nM.

Which IC50 does the source give for `N[C@@H](CC(=O)N1CCc2c(nc(C(F)(F)C(F)(F)F)nc2C(F)(F)F)C1)CN1CC(F)(F)CCC1=O` [Ex. 98, 1-{(2S)-2-amino-4-oxo-4-[2-(pentafluoroethyl)-4-(trifluoromethyl)-5,8-dihydropyrido[3,4-d]pyrimidin-7(6H)-yl]butyl}-5,5-difluoropiperidin-2-one] here?
The IC50 was 68 nM.

For `CCCc1nc2c(c(C(F)(F)F)n1)CCN(C(=O)C[C@H](N)CN1C[C@H](C)CCC1=O)C2` [Ex. 99, (5R)-1-{(2S)-2-amino-4-oxo-4-[2-propyl-4-(trifluoromethyl)-5,8-dihydropyrido[3,4-d]pyrimidin-7(6H)-yl]butyl}-5-methylpiperidin-2-one], which IC50 is on record?
Its IC50 is 19 nM.

With `CCCc1nc2c(c(C(F)(F)F)n1)CCN(C(=O)C[C@H](N)CN1CC(F)(F)CCC1=O)C2` [Ex. 100, 1-{(2S)-2-amino-4-oxo-4-[2-propyl-4-(trifluoromethyl)-5,8-dihydropyrido[3,4-d]pyrimidin-7(6H)-yl]butyl}-5,5-difluoropiperidin-2-one] as the compound, how does the IC50 read?
The IC50 was 18 nM.

`C[C@@H]1CCC(=O)N(C[C@@H](N)CC(=O)N2CCc3c(nc(CF)nc3C(F)(F)F)C2)C1` [Ex. 101, (5R)-1-{(2S)-2-amino-4-[2-(fluoromethyl)-4-(trifluoromethyl)-5,8-dihydropyrido[3,4-d]pyrimidin-7(6H)-yl]-4-oxobutyl}-5-methylpiperidin-2-one] was tested. Which IC50 did it give?
Its IC50 is 21 nM.

With `N[C@@H](CC(=O)N1CCc2c(nc(CF)nc2C(F)(F)F)C1)CN1CC(F)(F)CCC1=O` [Ex. 102, 1-{(2S)-2-amino-4-[2-(fluoromethyl)-4-(trifluoromethyl)-5,8-dihydropyrido[3,4-d]pyrimidin-7(6H)-yl]-4-oxobutyl}-5,5-difluoropiperidin-2-one] as the compound, how does the IC50 read?
Its IC50 is 29 nM.

How did the IC50 turn out when `CC1=CC(=O)N(C[C@@H](N)CC(=O)N2CCc3c(nc(C(F)(F)F)nc3C(F)(F)F)C2)C1` [Ex. 103, 1-{(2S)-2-amino-4-[2,4-bis(trifluoromethyl)-5,8-dihydropyrido[3,4-d]pyrimidin-7(6H)-yl]-4-oxobutyl}-4-methyl-1,5-dihydro-2H-pyrrol-2-one] was run?
Its IC50 is 74 nM.

How did the IC50 turn out when `CC1=CC(=O)N(C[C@@H](N)CC(=O)N2CCc3c(nc(-c4ccoc4)nc3C(F)(F)F)C2)C1` [Ex. 104, 1-{(2S)-2-amino-4-[2-(3-furyl)-4-(trifluoromethyl)-5,8-dihydropyrido[3,4-d]pyrimidin-7(6H)-yl]-4-oxobutyl}-4-methyl-1,5-dihydro-2H-pyrrol-2-one] was run?
Its IC50 is 110 nM.

How did the IC50 turn out when `CC1CC(=O)N(C[C@@H](N)CC(=O)N2CCc3c(nc(C(F)(F)F)nc3C(F)(F)F)C2)C1` (stereo partly drawn) [Ex. 105, 1-{(2S)-2-amino-4-[2,4-bis(trifluoromethyl)-5,8-dihydropyrido[3,4-d]pyrimidin-7(6H)-yl]-4-oxobutyl}-4-methyloxopyrrolidin-2-one] was run?
Its IC50 is 59 nM.

`CC1CC(=O)N(C[C@@H](N)CC(=O)N2CCc3c(nc(-c4ccoc4)nc3C(F)(F)F)C2)C1` (stereo partly drawn) [Ex. 106, 1-{(2S)-2-amino-4-[2-(3-furyl)-4-(trifluoromethyl)-5,8-dihydropyrido[3,4-d]pyrimidin-7(6H)-yl]-4-oxobutyl}-4-methylpyrrolidin-2-one] was tested. Which IC50 did it give?
Its IC50 is 45 nM.

How did the IC50 turn out when `N[C@@H](CC(=O)N1CCc2c(nc(C(F)(F)F)nc2C(F)(F)F)C1)CN1CC(C(F)(F)F)CCC1=O` (stereo partly drawn) [Ex. 107, 1-{(2S)-2-amino-4-[2,4-bis(trifluoromethyl)-5,8-dihydropyrido[3,4-d]pyrimidin-7(6H)-yl]-4-oxobutyl}-5-(trifluoromethyl)piperidin-2-one] was run?
Its IC50 is 636 nM.

For `N[C@@H](CC(=O)N1CCc2c(nc(C(F)(F)F)nc2C(F)(F)F)C1)CN1CC(C(F)(F)F)CC1=O` (stereo partly drawn) [Ex. 108, 1-{(2S)-2-amino-4-[2,4-bis(trifluoromethyl)-5,8-dihydropyrido[3,4-d]pyrimidin-7(6H)-yl]-4-oxobutyl}-4-(trifluoromethyl)pyrrolidin-2-one], which IC50 is on record?
Its IC50 is 54 nM.

How did the IC50 turn out when `N[C@@H](CC(=O)N1CCc2c(nc(-c3ccoc3)nc2C(F)(F)F)C1)CN1CC(C(F)(F)F)CC1=O` (stereo partly drawn) [Ex. 109, 1-{(2S)-2-amino-4-[2-(3-furyl)-4-(trifluoromethyl)-5,8-dihydropyrido[3,4-d]pyrimidin-7(6H)-yl]-4-oxobutyl}-4-(trifluoromethyl)pyrrolidin-2-one] was run?
Its IC50 is 55 nM.

Which IC50 does the source give for `CC1CCN(C[C@@H](N)CC(=O)N2CCc3c(nc(C(F)(F)F)nc3C(F)(F)F)C2)C(=O)C1` (stereo partly drawn) [Ex. 110, 1-{(2S)-2-amino-4-[2,4-bis(trifluoromethyl)-5,8-dihydropyrido[3,4-d]pyrimidin-7(6H)-yl]-4-oxobutyl}-4-methyloxopiperidin-2-one] here?
Its IC50 is 56 nM.

`CC1CCN(C[C@@H](N)CC(=O)N2CCc3c(nc(-c4ccoc4)nc3C(F)(F)F)C2)C(=O)C1` (stereo partly drawn) [Ex. 111, 1-{(2S)-2-amino-4-[2-(3-furyl)-4-(trifluoromethyl)-5,8-dihydropyrido[3,4-d]pyrimidin-7(6H)-yl]-4-oxobutyl}-4-methylpiperidin-2-one] was tested. Which IC50 did it give?
Its IC50 is 70 nM.

With `C[C@@H]1CCC(=O)N(C[C@@H](N)CC(=O)N2CCc3c(nc(C4CCC4)nc3C(F)(F)F)C2)C1` [Ex. 112, (5R)-1-{(2S)-2-amino-4-[2-cyclobutyl-4-(trifluoromethyl)-5,8-dihydropyrido[3,4-d]pyrimidin-7(6H)-yl]-4-oxobutyl}-5-methylpiperidin-2-one] as the compound, how does the IC50 read?
The IC50 was 10 nM.

`N[C@@H](CC(=O)N1CCc2c(nc(C3CCC3)nc2C(F)(F)F)C1)CN1CC(F)(F)CCC1=O` [Ex. 113, 1-{(2S)-2-amino-4-[2-cyclobutyl-4-(trifluoromethyl)-5,8-dihydropyrido[3,4-d]pyrimidin-7(6H)-yl]-4-oxobutyl}-5,5-difluoropiperidin-2-one] was tested. Which IC50 did it give?
Its IC50 is 13 nM.
